Structures are written as SMILES. Values joined by “and” are separate entries in the source; they are usually repeats but may differ in a detail not shown here. Equal values may be shown once. Active and inactive are the calls of the source. How the calls were made is not given here.

The IC50 is the point on the concentration scale where inhibition reaches its midpoint.

This test deals with Insulin-degrading enzyme (Homo sapiens) (UniProt P14735). Description: recombinant IDE inhibition, cell-free – biochemical, fluorescence polarization, counter-screen for IDE inhibitor project, late-stage follow-up (AID 588711).
Chain of Insulin-degrading enzyme (Homo sapiens) (P14735 whole entry, looked up): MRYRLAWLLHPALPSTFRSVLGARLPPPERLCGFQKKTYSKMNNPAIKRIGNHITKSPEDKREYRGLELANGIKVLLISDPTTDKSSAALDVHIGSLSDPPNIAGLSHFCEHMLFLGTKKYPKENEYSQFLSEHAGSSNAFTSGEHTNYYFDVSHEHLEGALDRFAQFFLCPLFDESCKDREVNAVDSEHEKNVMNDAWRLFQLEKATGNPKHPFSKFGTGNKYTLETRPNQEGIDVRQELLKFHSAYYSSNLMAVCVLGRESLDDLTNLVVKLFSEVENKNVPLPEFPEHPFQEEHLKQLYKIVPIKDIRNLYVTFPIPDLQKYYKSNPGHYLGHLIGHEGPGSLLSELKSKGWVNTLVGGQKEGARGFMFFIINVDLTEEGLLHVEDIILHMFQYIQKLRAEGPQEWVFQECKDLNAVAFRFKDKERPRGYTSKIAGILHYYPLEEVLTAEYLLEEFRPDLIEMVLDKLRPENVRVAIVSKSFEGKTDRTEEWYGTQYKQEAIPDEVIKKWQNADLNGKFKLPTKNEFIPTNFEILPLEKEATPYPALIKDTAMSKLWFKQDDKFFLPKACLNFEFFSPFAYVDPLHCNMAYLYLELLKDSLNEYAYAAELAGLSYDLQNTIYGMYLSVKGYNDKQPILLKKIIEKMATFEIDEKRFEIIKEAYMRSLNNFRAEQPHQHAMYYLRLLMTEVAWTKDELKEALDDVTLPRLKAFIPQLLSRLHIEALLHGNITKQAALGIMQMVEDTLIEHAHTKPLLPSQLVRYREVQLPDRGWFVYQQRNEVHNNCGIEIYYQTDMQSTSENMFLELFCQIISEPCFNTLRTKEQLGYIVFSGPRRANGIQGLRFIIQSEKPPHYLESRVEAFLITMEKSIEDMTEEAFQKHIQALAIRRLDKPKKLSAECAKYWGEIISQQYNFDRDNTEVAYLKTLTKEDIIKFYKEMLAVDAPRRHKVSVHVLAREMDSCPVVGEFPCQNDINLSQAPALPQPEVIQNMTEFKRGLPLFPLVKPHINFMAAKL
Regarding `Cn1c(SCc2nc3ccccc3[nH]2)nnc1-c1cccc(Cl)c1`, the IC50 is > 54.7 µM (inactive). Under `O=C(Nc1cc(C(F)(F)F)cc(C(F)(F)F)c1)c1csc(-c2ccncc2)n1` stands > 54.7 µM (inactive); under `CC(Sc1nnc(-c2cccnc2)n1-c1ccccc1F)C(=O)N1CCCc2ccccc21` (stereo not given), > 54.7 µM (inactive); under `Cc1ccc(-c2nc(C(=O)Nc3cccc(C(F)(F)F)c3)cs2)cc1`, > 54.7 µM (inactive). Under `O=C(Nc1ccc2oc(-c3cccnc3)nc2c1)c1ccc2c(c1)OCCO2` stands > 54.7 µM (inactive). As for `O=C(C1CC1)N1CCN(c2ccnc3cc(Cl)ccc23)CC1`, the IC50 entry was “inactive”. Turning to `O=C(CSc1nnc(-c2cccc(Cl)c2)n1Cc1ccco1)Nc1ccccc1C(F)(F)F`, the IC50 is > 54.7 µM (inactive). With `Clc1cccc(-c2nnc(SCc3nc4ccccc4[nH]3)n2Cc2ccco2)c1` the figure was 2.34 µM. Under `O=C(CSc1nnc(-c2cccc(Cl)c2)n1Cc1ccco1)Nc1ccc2c(c1)OCCO2` stands > 54.7 µM (inactive). Under `COc1cc(/C=C2\SC(=S)N(NC(C)=O)C2=O)ccc1OC(=O)c1ccco1` stands “inactive”; under `COc1ccc(-c2nc(C(=O)Nc3cccc(C(F)(F)F)c3)cs2)cc1`, > 54.7 µM (inactive). Take `Cc1ccc(NC(=O)CSc2nnc(-c3cccc(Cl)c3)n2Cc2ccco2)c(C)c1`: the IC50 is > 54.7 µM (inactive). Under `Cc1cccc(-c2nnc(SCc3nc4ccccc4[nH]3)n2Cc2ccco2)c1` stands 7.21 µM and 6.15 µM.

On to `COc1ccc(C(=O)N2CCN(C(=O)C3COc4ccccc4O3)CC2)cc1OC` (stereo not given), for which the IC50 entry is “inactive”. On to `Nc1c(C(=O)Nc2nccs2)sc2nc(-c3cccs3)cc(C(F)(F)F)c12`, for which the IC50 is > 18.2 µM (inactive). Under `Cc1c(CCC(=O)NCCCn2ccnc2)c(=O)oc2cc3oc4c(c3cc12)CCCC4` stands 6.14 µM; under `O=C(CSc1nnc(-c2cccc(Cl)c2)n1Cc1ccco1)Nc1ccc2cn[nH]c2c1`, > 54.7 µM (inactive).

On to `Clc1cccc(-c2nnc(SCc3nc4ccccc4[nH]3)n2-c2ccccc2)c1`, for which the IC50 was > 54.7 µM (inactive). Under `COc1cccc(-c2nnc(SCc3nc4ccccc4[nH]3)n2Cc2ccco2)c1` stands 5.9 µM; under `COc1ccc(NC(=O)CSc2nnc(CN3CCOCC3)n2C)cc1Cl`, > 54.7 µM (inactive); under `Cc1nc(-c2cccnc2)sc1C(=O)Nc1cccc(C(F)(F)F)c1`, > 54.7 µM (inactive). With `O=C(Nc1cccc(C(F)(F)F)c1)c1csc(Cc2cccc(C(F)(F)F)c2)n1`, the IC50 is > 54.7 µM (inactive). With `O=C(Nc1cccc(C(F)(F)F)c1)c1csc(-c2ccncc2)n1` the figure was 2.8 µM; with `CCOc1ccc2[nH]c3c(N4CCN(C(=O)c5ccco5)CC4)ncnc3c2c1`, 8.54 µM. With `O=c1c2ccccc2sn1-c1cc(S(=O)(=O)N2CCOCC2)ccc1N1CCOCC1` the figure was 1.71 µM; with `O=C(Nc1cccc(C(F)(F)F)c1)c1csc(-c2ccccc2)n1`, > 54.7 µM (inactive); with `Cn1c(=O)c(C(=O)CN2CCCc3ccccc32)c(N)n(Cc2ccccc2)c1=O`, > 54.7 µM (inactive). For `O=C(CSc1nnc(-c2cccc(Cl)c2)n1Cc1ccco1)c1ccc2ccccc2c1`, the IC50 is > 54.7 µM (inactive).

`Cc1ccc(C)c(N2C(=N)S/C(=C\c3ccc(-c4ccccc4C(=O)O)o3)C2=O)c1`: the IC50 was > 54.7 µM (inactive). Under `O=C(Nc1cccc(C(F)(F)F)c1)c1csc(-c2cccc(C(F)(F)F)c2)n1` stands > 54.7 µM (inactive).

The record behind these values is PubChem BioAssay AID588711 (The Scripps Research Institute Molecular Screening Center, 2011).
